Measurements from patent US6156724A, “Uses of didemnins as immunomodulating agents” (priority 1998, dated 2000).
Where two headings read alike, the source gives them in different places. Numbered stars: 1 amine (or outer) side, 2 acyl side, 3 side chain; on linkers, the order of the positions; unused ones are H or OH. Bridge positions count the residues as written; N and C are the ends. Square brackets hold non-standard residues; d marks the D form. Peptide text beside a SMILES is read from it. * marks the point of attachment. X1 = CC[C@H](C)[C@@H](N[*:1])[C@@H](O)CC(=O)O[C@H](C(=O)[C@H](C)C(=O)[*:2])C(C)C; NMeY = CN[C@@H](Cc1ccc(O)cc1)C(=O)O; dNMeL = CN[C@H](CC(C)C)C(=O)O; pGlu = O=C1CC[C@@H](C(=O)O)N1; Isobutyryl = CC(C)C(=O)*; Lac = C[C@H](O)C(=O)O

Legend:
[1] = test system: murine splenocytes (Balb/c and C57B1/6); experiment: Two-way mixed lymphocyte reaction (MLR) assay;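 also: proliferation read as tritiated thymidine incorporation into newly made DNA after an overnight pulse, expressed as percent of control activity, IC50 interpolated per compound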
[2] = test system: Balb/c splenocytes (resting lymphocytes); experiment: Lymphocyte viability (LcV) assay; type: cell-based, murine; settings: unstimulated Balb/c splenocytes, MTT
Method in brief: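 Resting Balb/c splenocytes incubated with compounds under MLR-equivalent conditions, then pulsed overnight with MTT; formazan dissolved in isopropanol and absorbance read at 570 nm. Viability expressed as percent of untreated Balb/c control metabolic activity, with LC50 interpolated.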

[3] = test system: concanavalin A-induced lymphoblasts (Con A splenocytes); experiment: Lymphoblast viability (LbV) assay; settings: Con A-stimulated splenocytes (lymphoblasts), MTT
[4] = test system: CB6F1 mice grafted with Balb/c splenocytes; experiment: Graft vs host reaction (GVHR) splenomegaly assay; type: in vivo; settings: for alive day 8 / body weight change day 5 / body weight day 5 (g ± SD) / index (spleen wt. treated/spleen wt. syngenetic injection) / mean group spleen wt. normalized to day 8 body weight: QD 1-7, ip
Method: Three representative compounds didemnin M (38), O-pGlu-DB (37), and didemnin B (1)-showing high (37,38) or moderate (1) in vivo immunosuppressive activity were subsequently evaluated in a multidose assay (0.16,0.016, and 0.0016 mg/kg per injection; qd 1-7) for their in vivo immunosuppressive effects on the GVHR splenomegaly assay.
Three didemnins (didemnin B, didemnin M, and pGlu-didemnin B) were evaluated in a modified Simonsen splenomegaly assay. Briefly, an F1 hybrid host animal is grated with immunocompetent spleen cells from the parent strain. The index used to measure the success of the GVHR is splenomegaly (increased spleen weight due to cellular proliferation of grafted lymphocytes). An index>1.3 (graft index) is considered to be a successful graft rejection of the recipient animal. Immunosuppression is considered as a reduction of the graft index.
On day O, CB6F1 female mice, 4 weeks of age, were grated by intraperitoneal (ip) injection of 50×10^5 splenocytes from BALB/c female mice in high-glucose ([…]) Dulbecco's modified Eagles medium. A syngeneic control group (CB6F1 --CB6F1) was similarly prepared and served as the negative control. Grafted mice were divided into treatment groups containing six mice each. Groups were injected ip with test compound (dissolved in vehicle; 1% abs. EtOH in sterile phosphate-buffered saline) at one of three dose levels (0.16, 0.016, and 0.0016 mg/kg per injection) in a multidose assay, cyclophosphamide (200 mg/kg per injection) or vehicle on days 1-7 (qd 1-7). On day 8 all groups were sacrificed, spleens were excised, and a graft index was calculated for each group by the following formula: [formula]

[5] = Balb/c + C57B1/6 splenocytes, 96 h, [3H]thymidine
[6] = read-out: two-way mixed lymphocyte reaction (MLR) suppression MLR, IC50, Balb/c + C57B1/6 splenocytes, 96 h, [3H]thymidine

Compound | two-way mixed lymphocyte reaction (MLR) suppression MLR, IC50 [1, 5] | IC50 [1, 6] | cytoxicity to lymphocytes LcV, LC50 [2] | cytoxicity to lymphocytes LcV, LC50 ([2]; highest concentration 10 μg/mL) | cytotoxicity to lymphocytes LbV, LC50 [3] | further results
CC[C@H](C)[C@H]1NC(=O)[C@@H](NC(=O)[C@@H](CC(C)C)N(C)C(=O)[C@@H]2CCCN2C(=O)C(C)C)[C@@H](C)OC(=O)[C@H](Cc2ccc(OC)cc2)N(C)C(=O)[C@@H]2CCCN2C(=O)[C@H](CC(C)C)NC(=O)[C@@H](C)C(=O)[C@H](C(C)C)OC(=O)C[C@@H]1O [Compound 33, [Isobutyryl^9]Didemnin B] (Isobutyryl-P[dNMeL]T[X1]LP[NMeY](Me); ester 3-C) | 0.041 ng/mL | 0.037 nM | 2240 nM | 2.40 µg/mL | 0.204 nM | 
CC[C@H](C)[C@H]1NC(=O)[C@@H](NC(=O)[C@@H](CC(C)C)N(C)C(=O)[C@H]2CCCN2C(=O)C(C)C)[C@@H](C)OC(=O)[C@H](Cc2ccc(OC)cc2)N(C)C(=O)[C@@H]2CCCN2C(=O)[C@H](CC(C)C)NC(=O)[C@@H](C)C(=O)[C@H](C(C)C)OC(=O)C[C@@H]1O [Compound 34, [Isobutyryl^9, D-Pro^8] Didemnin B] (Isobutyryl-[dP][dNMeL]T[X1]LP[NMeY](Me); ester 3-C) | 0.67 ng/mL | 0.6 nM | 5600 nM | 6.20 µg/mL | 4.81 nM | 
CC[C@H](C)[C@H]1NC(=O)[C@@H](NC(=O)[C@@H](CC(C)C)N(C)C(=O)[C@H](C)NC(=O)[C@H](C)O)[C@@H](C)OC(=O)[C@H](Cc2ccc(OC)cc2)N(C)C(=O)[C@@H]2CCCN2C(=O)[C@H](CC(C)C)NC(=O)[C@@H](C)C(=O)[C@H](C(C)C)OC(=O)C[C@@H]1O [Compound 35, [L-Ala^8]Didemnin B] | 0.33 ng/mL | 0.31 nM | > 9200 nM | > 10 µg/mL | 0.717 nM | 
CC[C@H](C)[C@H]1NC(=O)[C@@H](NC(=O)[C@@H](CC(C)C)N(C)C(=O)[C@@H]2CCCN2C(=O)[C@H](C)OC(=O)[C@@H]2CCC(=O)N2)[C@@H](C)OC(=O)[C@H](Cc2ccc(OC)cc2)N(C)C(=O)[C@@H]2CCCN2C(=O)[C@H](CC(C)C)NC(=O)[C@@H](C)C(=O)[C@H](C(C)C)OC(=O)C[C@@H]1O [Compound 37, O-Pyroglutamyldidemnin B] ([pGlu][Lac]P[dNMeL]T[X1]LP[NMeY](Me); ester 5-C) | 0.007 ng/mL | 0.0053 nM | > 8200 nM | > 10 µg/mL | 0.079 nM | IC50 ([1]; read-out: MLR IC50): 0.0053 nM; alive day 8 ([4]; 0.0016 mg/Kg/day): 100%; body weight change day 5 ([4]; 0.0016 mg/Kg/day): 0.4 g; body weight day 5 (g ± SD) ([4]; 0.0016 mg/Kg/day): 17.4 ± 1.7 g; index (spleen wt. treated/spleen wt. syngenetic injection) ([4]; 0.0016 mg/Kg/day): 1.63; mean group spleen wt. normalized to day 8 body weight ([4]; 0.0016 mg/Kg/day): 5.2; alive day 8 ([4]; 0.016 mg/Kg/day): 100%; body weight change day 5 ([4]; 0.016 mg/Kg/day): 0.8 g; body weight day 5 (g ± SD) ([4]; 0.016 mg/Kg/day): 17.2 ± 1.5 g; index (spleen wt. treated/spleen wt. syngenetic injection) ([4]; 0.016 mg/Kg/day): 1.76; mean group spleen wt. normalized to day 8 body weight ([4]; 0.016 mg/Kg/day): 5.6; suppression of allogeneically induced splenomegaly response compared to control ([4]; 160 μg/kg per injection): 54%; toxicity to the animals ([4]; 160 μg/kg per injection (highest dose)): neither was toxic; alive day 8 ([4]; 0.16 mg/Kg/day): 100%; body weight change day 5 ([4]; 0.16 mg/Kg/day): -0.6 g; body weight day 5 (g ± SD) ([4]; 0.16 mg/Kg/day): 15.2 ± 1.2 g; index (spleen wt. treated/spleen wt. syngenetic injection) ([4]; 0.16 mg/Kg/day): 1.32; mean group spleen wt. normalized to day 8 body weight ([4]; 0.16 mg/Kg/day): 4.2
CC[C@H](C)[C@H]1NC(=O)[C@@H](NC(=O)[C@@H](CC(C)C)N(C)C(=O)[C@@H]2CCCN2C(=O)[C@H](C)OC(=O)[C@H](CCC(N)=O)NC(=O)[C@@H]2CCC(=O)N2)[C@@H](C)OC(=O)[C@H](Cc2ccc(OC)cc2)N(C)C(=O)[C@@H]2CCCN2C(=O)[C@H](CC(C)C)NC(=O)[C@@H](C)C(=O)[C@H](C(C)C)OC(=O)C[C@@H]1O [Compound 38, Didemnin M] ([pGlu]Q[Lac]P[dNMeL]T[X1]LP[NMeY](Me); ester 6-C) | 0.001 ng/mL |  | > 7410 nM | > 10 µg/mL | 0.25 nM | suppression of allogeneically induced splenomegaly response compared to control ([4]; 1.6 μg/kg per injection): 61%; alive day 8 ([4]; 0.0016 mg/Kg/day): 100%; body weight change day 5 ([4]; 0.0016 mg/Kg/day): 1.4 g; body weight day 5 (g ± SD) ([4]; 0.0016 mg/Kg/day): 17.2 ± 1.2 g; index (spleen wt. treated/spleen wt. syngenetic injection) ([4]; 0.0016 mg/Kg/day): 1.27; mean group spleen wt. normalized to day 8 body weight ([4]; 0.0016 mg/Kg/day): 4.1; alive day 8 ([4]; 0.016 mg/Kg/day): 100%; body weight change day 5 ([4]; 0.016 mg/Kg/day): -0.2 g; body weight day 5 (g ± SD) ([4]; 0.016 mg/Kg/day): 17.8 ± 0.7 g; index (spleen wt. treated/spleen wt. syngenetic injection) ([4]; 0.016 mg/Kg/day): 1.38; mean group spleen wt. normalized to day 8 body weight ([4]; 0.016 mg/Kg/day): 4.4; alive day 8 ([4]; 0.16 mg/Kg/day): 100%; body weight change day 5 ([4]; 0.16 mg/Kg/day): 1.0 g; body weight day 5 (g ± SD) ([4]; 0.16 mg/Kg/day): 16.4 ± 1.0 g; index (spleen wt. treated/spleen wt. syngenetic injection) ([4]; 0.16 mg/Kg/day): 1.54; mean group spleen wt. normalized to day 8 body weight ([4]; 0.16 mg/Kg/day): 4.9; toxicity to the animals ([4]; 16 and 160 μg/kg): not toxic
CC[C@H](C)[C@H]1NC(=O)[C@@H](NC(=O)[C@@H](CC(C)C)N(C)C(=O)[C@@H]2CCCN2C(=O)[C@H](C)OC(=O)[C@H](CCC(N)=O)NC(=O)[C@H](CCC(N)=O)NC(=O)[C@@H]2CCC(=O)N2)[C@@H](C)OC(=O)[C@H](Cc2ccc(OC)cc2)N(C)C(=O)[C@@H]2CCCN2C(=O)[C@H](CC(C)C)NC(=O)[C@@H](C)C(=O)[C@H](C(C)C)OC(=O)C[C@@H]1O [Compound 39, Didemnin E] ([pGlu]QQ[Lac]P[dNMeL]T[X1]LP[NMeY](Me); ester 7-C) | 0.012 ng/mL | 0.0084 nM | > 6770 nM | > 10 µg/mL | 1.4 nM | IC50 ([1]; read-out: MLR IC50): 0.0084 nM
CC[C@H](C)[C@H]1NC(=O)[C@@H](NC(=O)[C@@H](CC(C)C)N(C)C(=O)[C@@H]2CCCN2C(=O)[C@H](C)OC(=O)[C@H](CCC(N)=O)NC(=O)[C@H](CCC(N)=O)NC(=O)[C@H](CCC(N)=O)NC(=O)[C@@H]2CCC(=O)N2)[C@@H](C)OC(=O)[C@H](Cc2ccc(OC)cc2)N(C)C(=O)[C@@H]2CCCN2C(=O)[C@H](CC(C)C)NC(=O)[C@@H](C)C(=O)[C@H](C(C)C)OC(=O)C[C@@H]1O [Compound 40, Didemnin D] ([pGlu]QQQ[Lac]P[dNMeL]T[X1]LP[NMeY](Me); ester 8-C) | 0.20 ng/mL | 0.12 nM | > 6220 nM | > 10 µg/mL | 0.85 nM | 
Didemnin X [Compound 41] | 0.83 ng/mL | 0.5 nM | 6010 nM | 10.0 µg/mL | 3.1 nM | 
Didemnin Y [Compound 42] | 0.89 ng/mL | 0.5 nM | > 5570 nM | > 10 µg/mL | 1.1 nM | 
[Anhydro1st^2 ][Phth-Ala^9 ]DB [Compound 9] | 0.30 ng/mL | 0.25 nM | > 8200 nM | > 10 µg/mL | 1.9 nM | 
[Phth-Ala^9 ]DB [Compound 8] | 0.49 ng/mL | 0.39 nM | > 8100 nM | > 10 µg/mL | 0.81 nM | 
